Test results taken from patent US8877745B2, “CCR2 receptor antagonists, method for producing the same, and use thereof as medicaments” (Boehringer Ingelheim International GmbH, priority 2010, dated 2014).

Target: T1, CCR2 (Homo sapiens, UniProt P41597)
T1 construct: Membranes were prepared from THP-1 cells; endogenous in cells; host or cells: THP-1 (human acute monocytic leukaemia cells), membrane preparation
Test: CCR2 receptor membrane binding assay ([125I]MCP-1, THP-1 cell membranes, SPA beads)
Conditions: THP-1 membranes, [125I]MCP-1, bound radioactivity determined after 8 h; read-out: hKi
Method: The above exemplary substances have been tested for binding to CCR2 using a binding assay as outlined herein below:
THP-1 cells (human acute monocytic leukaemia cells) were cultured under standardized conditions at 37° C. and 5% CO2 in a humidified incubator. THP-1 cells were cultivated in RPMI 1640 medium (Gibco 21875) containing 1% MEM-NEAA (Gibso 11140) 2 mM L-glutamine, 1.5 g/L sodium bicarbonate, 4.5 g/L glucose, 10 mM HEPES and 1.0 mM sodium pyruvate, 90%; 10% fetal calf serum (FCS Gibco 10500-064).
Membranes were prepared from THP-1 cells. THP-1 cells were centrifuged at 300×g at 4° C. for 10 min. The cell pellet was resuspended in Phosphate Buffer Saline (PBS, including 10 μM Pefabloc and a protease inhibitor mix ‘complete’, Boehringer Mannheim (1 tablet/50 ml)), to a concentration of […]. The membrane preparation was performed by disrupting the cells by nitrogen […] (at 50 bar, for 1 h) in a “Nitrogen Bombe” (Parr Instrument). Cell debris was removed by centrifugation (800×g at 4° C., 1 min). The supernatant was centrifuged at 80000×g, 4° C. for 30 min to sediment the cell membranes. Usually 50 mg of protein (Bradford assay) were yielded from 1×10E9 cells. The membranes were resuspended in 25 mM HEPES, 25 mM MgCl2, 1 mM CaCl2, 10% Glycerine for storage in aliquots at −80° C. in 25 mM HEPES, 25 mM MgCl2, 1 mM CaCl2, 10% Glycerine and stored at −80° C.
Receptor Membrane Binding Assay:
Perkin Elmer NEX 332 Jod 125 MCP-1, Stock: 2200 Ci/mmol solved in […] assay buffer, stored at −20° C. THP-1 membrane were adjusted with 25 mM HEPES, pH 7.2; 5 mM MgCl2; 0.5 mM CaCl2; 0.2% BSA assay buffer to a concentration of 2.5 μg/15 μl. Amersham Biosciences PVT-WGA Beads (RPNQ0001) were adjusted with assay buffer to a concentration of 0.24 mg/30 μl. For preparation of the membrane-bead-suspension membranes and beads were incubated for 30 min at RT under rotation (60 rpm) with a ratio of 1:2. Test compounds dissolved in 100% DMSO to a concentration of 10 mM and are further diluted with 100% DMSO to 1 mM. All additional compound dilutions were obtained with assay buffer, final 1% DMSO. Compounds, membrane-bead-suspension and [^125I]MCP-1 (ca. 25000 cpm/10 μl) were incubated. Bound radioactivity was determined by scintillation counter after 8 h. Determination of affinity of test compounds (dissociation constant hKi) is calculated by iterative fitting of experimental data using the “easy sys” program, which is based on law of mass action (Schittkowski K. (1994), Numerische Mathematik, Vol. 68, 129-142).

T1 sequence (P41597 whole entry): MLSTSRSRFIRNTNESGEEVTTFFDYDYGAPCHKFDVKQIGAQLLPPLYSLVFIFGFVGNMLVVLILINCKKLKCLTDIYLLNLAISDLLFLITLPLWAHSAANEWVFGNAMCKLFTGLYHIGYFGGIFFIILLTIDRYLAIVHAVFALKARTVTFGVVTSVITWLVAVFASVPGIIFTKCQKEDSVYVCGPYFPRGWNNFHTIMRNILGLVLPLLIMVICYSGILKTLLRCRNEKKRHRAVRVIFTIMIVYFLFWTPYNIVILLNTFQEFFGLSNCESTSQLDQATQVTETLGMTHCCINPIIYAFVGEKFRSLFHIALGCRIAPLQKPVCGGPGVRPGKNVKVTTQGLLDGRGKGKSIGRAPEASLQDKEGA

| SMILES | Ki |
| --- | --- |
| COC1COCCC1NC1CCN(C(=O)c2ncnc(N3CC4CC4(c4cccc(C(F)(F)F)c4)C3)c2C)CC1 (stereo not drawn) [Example 62b] | 357 nM |
| COC1COCCC1NC1CCN(C(=O)c2ncnc(N3CCC(c4ccc(C(F)(F)F)cc4)CC3)c2C)CC1 (stereo not drawn) [Example 41] | 432 nM |
| COC1COCCC1NC1CCN(C(=O)c2ncnc(N3CCN(c4ccc(C(F)(F)F)cn4)CC3)c2C)CC1 (stereo not drawn) [Example 56] | 1020 nM |
| COC1COCCC1NC1CCN(C(=O)c2ncnc(N3CCC(c4ccccc4C(F)(F)F)CC3)c2C)CC1 (stereo not drawn) [Example 29] | 241 nM |
| COC1COCCC1NC1CCN(C(=O)c2ncnc(N3CCC4(C=Cc5ccccc54)CC3)c2C)CC1 (stereo not drawn) [Example 23] | 455 nM |
| COC1COCCC1NC1CCN(C(=O)c2ncnc(N3CCC(c4ccccc4Cl)C3)c2C)CC1 (stereo not drawn) [Example 62e] | 419 nM |
| COC1COCCC1NC1CCN(C(=O)c2ncnc(N3CCC4(CC3)CC(=O)c3cc(Br)ccc3O4)c2C)CC1 (stereo not drawn) [Example 62i] | 184 nM |
| COC1COCCC1NC1CCN(C(=O)c2ncnc(N3CCc4ncc(Br)cc4C3)c2C)CC1 (stereo not drawn) [Example 40] | 304 nM |
| Cc1c(C(=O)N2CCC(N3CCCC(O)C3)CC2)ncnc1N1CCc2ccc(C(F)(F)F)cc2C1 (stereo not drawn) [Example 77] | 410 nM |
| Cc1c(C(=O)N2CCC(N3CCC(N(C)S(C)(=O)=O)CC3)CC2)ncnc1N1CCC(c2ccccc2C(F)(F)F)CC1 [Example 25] | 657 nM |
| Cc1c(C(=O)N2CCC(N3CCC(N(C)S(C)(=O)=O)CC3)CC2)ncnc1N1CCC2(C=Cc3ccccc32)CC1 [Example 11] | 2160 nM |
| COC1COCCC1NC1CCN(C(=O)c2ncnc(N3CCCC4(CCCCC4)C3)c2C)CC1 (stereo not drawn) [Example 62f] | 9560 nM |
| COC1COCCC1NC1CCN(C(=O)c2ncnc(N3CCC(c4ccccc4F)C3)c2C)CC1 (stereo not drawn) [Example 51] | 405 nM |
| COC1COCCC1NC1CCN(C(=O)c2ncnc(N3CCN(c4ccccc4C)CC3)c2C)CC1 (stereo not drawn) [Example 62m] | 300 nM |
| Cc1c(C(=O)N2CCC(N3CCC(N(C)S(C)(=O)=O)CC3)CC2)ncnc1N1CCCC(c2ccc(C(F)(F)F)cc2)C1 (stereo not drawn) [Example 34] | 4250 nM |
| Cc1c(C(=O)N2CCC(N3CCC(N(C)S(C)(=O)=O)CC3)CC2)ncnc1N1CCC(c2cccc(Cl)c2)CC1 [Example 27] | 661 nM |
| Cc1c(C(=O)N2CCC(N3CCOCC3)CC2)ncnc1N1CCc2ccc(C(F)(F)F)cc2C1 [Example 82] | 203 nM |
| Cc1c(C(=O)N2CCC(N3CCC(N(C)S(C)(=O)=O)CC3)CC2)ncnc1N1CCC(c2cccc(F)c2)CC1 [Example 22] | 3790 nM |
| COC1COCCC1NC1CCN(C(=O)c2ncnc(N3CCc4c(Cl)cccc4C3)c2C)CC1 (stereo not drawn) [Example 38] | 168 nM |
| COC1COCCC1NC1CCN(C(=O)c2ncnc(N3CCN(c4cccc(C(F)(F)F)c4)CC3)c2C)CC1 (stereo not drawn) [Example 57] | 189 nM |
| COC1COCCC1NC1CCN(C(=O)c2ncnc(N3CCc4ncc(C(F)(F)F)cc4C3)c2C)CC1 (stereo not drawn) [Example 61] | 309 nM |
| COc1ccc(C2CCN(c3ncnc(C(=O)N4CCC(N5CCC(N(C)S(C)(=O)=O)CC5)CC4)c3C)CC2)cc1 [Example 21] | 4410 nM |
| CCN(CC)C1CCN(C(=O)c2ncnc(N3CCc4ccc(C(F)(F)F)cc4C3)c2C)CC1 [Example 74] | 552 nM |
| Cc1cccc(C2CCN(c3ncnc(C(=O)N4CCC(N5CCC(N(C)S(C)(=O)=O)CC5)CC4)c3C)CC2)c1 [Example 30] | 1360 nM |
| COC1COCCC1NC1CCN(C(=O)c2ncnc(N3CCC(c4ccccc4)C3)c2C)CC1 (stereo not drawn) [Example 50] | 451 nM |
| COC1COCCC1NC1CCN(C(=O)c2ncnc(N3CCN(c4ccc5c(c4)OCCO5)CC3)c2C)CC1 (stereo not drawn) [Example 62ad] | 336 nM |
| COC1COCCC1NC1CCN(C(=O)c2ncnc(N3CCC(c4ccccc4)CC3)c2C)CC1 (stereo not drawn) [Example 16] | 1510 nM |
| Cc1c(C(=O)N2CCC(N3CCC(N(C)S(C)(=O)=O)CC3)CC2)ncnc1N1CCOC(c2ccc(Cl)cc2)C1 (stereo not drawn) [Example 3] | 3690 nM |
| COC1COCCC1NC1CCN(C(=O)c2ncnc(N3CCC(c4cccc(C(F)(F)F)c4)CC3)c2C)CC1 (stereo not drawn) [Example 42] | 230 nM |

Now those with a lower Ki, led by results:

| Ki | SMILES |
| --- | --- |
| 161 nM | COC1COCCC1NC1CCN(C(=O)c2ncnc(N3CCC(c4ccccc4C(F)(F)F)C3)c2C)CC1 (stereo not drawn) [Example 49] |
| 12 nM | CO[C@@H]1COCC[C@@H]1NC1CCN(C(=O)c2ncnc(N3CCC4(CCc5cc(Cl)ccc5O4)CC3)c2C)CC1 [Example 62an] |
| 42 nM | COC1COCCC1NC1CCN(C(=O)c2ncnc(N3CCc4ccc(C)cc4C3)c2C)CC1 (stereo not drawn) [Example 59] |
| 16 nM | CO[C@@H]1COCC[C@@H]1NC1CCN(C(=O)c2ncnc(N3CCc4ccc(OC(F)(F)F)cc4C3)c2C)CC1 [Example 65] |
| 159 nM | COC1COCCC1NC1CCN(C(=O)c2ncnc(N3CCC(c4ccc(C(F)(F)F)cc4)C3)c2C)CC1 (stereo not drawn) [Example 48] |
| 15 nM | Cc1c(C(=O)N2CCC(N3CCC(N(C)S(C)(=O)=O)CC3)CC2)ncnc1N1CCc2ccc(C(F)(F)F)cc2C1 [Example 1] |
| 4 nM | COc1nc(C(=O)N2CCC(N[C@@H]3CCOC[C@@H]3OC)CC2)c(C)c(N2CCc3ccc(C(F)(F)F)cc3C2)n1 [Example 69i] |
| 9 nM | COc1c(C(=O)N2CCC(N[C@H]3CCOC[C@H]3OC)CC2)ncnc1N1CCc2ccc(C(F)(F)F)cc2C1 [Example 69b] |
| 1 nM | CO[C@@H]1COCC[C@@H]1NC1CCN(C(=O)c2ncnc(N3COc4ccc(C(F)(F)F)cc4C3)c2C)CC1 [Example 69e] |
| 89 nM | COC1COCCC1NC1CCN(C(=O)c2ncnc(N3CCN(c4ccccc4Cl)CC3)c2C)CC1 (stereo not drawn) [Example 62aa] |
| 41 nM | COC1COCCC1NC1CCN(C(=O)c2ncnc(N3CCN(c4cccc(C)c4C)CC3)c2C)CC1 (stereo not drawn) [Example 62ah] |
| 1 nM | COc1nc(C(=O)N2CCC(N[C@H]3CCOC[C@H]3OC)CC2)c(C)c(N2CCc3ccc(C(F)(F)F)cc3C2)n1 [Example 69j] |
| 145 nM | COC1COCCC1NC1CCN(C(=O)c2ncnc(N3CCN(c4cc(F)cc(F)c4)CC3)c2C)CC1 (stereo not drawn) [Example 62ak] |
| 12 nM | CO[C@@H]1COCC[C@@H]1NC1CCN(C(=O)c2ncnc(N3CCC4(CCc5cc(Br)ccc5O4)CC3)c2C)CC1 [Example 62am] |
| 8 nM | COc1nc(C(=O)N2CCC(NC3CCOCC3F)CC2)c(C)c(N2CCc3ccc(C(F)(F)F)cc3C2)n1 (stereo not drawn) [Example 69s] |
| 17 nM | COC1COCCC1NC1CCN(C(=O)c2ncnc(N3CCN(c4cc(Cl)cc(Cl)c4)CC3)c2C)CC1 (stereo not drawn) [Example 62t] |
| 13 nM | CO[C@H]1COCC[C@H]1NC1CCN(C(=O)c2ncnc(N3CCc4ccc(C(F)(F)F)cc4C3)c2C)CC1 [Example 64] |
| 39 nM | CO[C@@H]1COCC[C@@H]1NC1CCN(C(=O)c2ncnc(N3CCc4ccc(F)cc4C3)c2C)CC1 [Example 69h] |
| 0.7 nM | CO[C@@H]1COCC[C@@H]1NC1CCN(C(=O)c2nc(C3CC3)nc(N3CCc4ccc(C(F)(F)F)cc4C3)c2C)CC1 [Example 69x] |
| 6 nM | CO[C@@H]1COCC[C@@H]1NC1CCN(C(=O)c2ncnc(N3CCc4cc(C(F)(F)F)ccc4C3)c2C)CC1 [Example 69p] |
| 52 nM | Cc1c(C(=O)N2CCC(N3CCCC3)CC2)ncnc1N1CCc2ccc(C(F)(F)F)cc2C1 [Example 73] |
| 54 nM | COC1COCCC1NC1CCN(C(=O)c2ncnc(N3CCN(c4ccc(Cl)c(C(F)(F)F)c4)CC3)c2C)CC1 (stereo not drawn) [Example 62w] |
| 22 nM | CO[C@@H]1COCC[C@@H]1NC1CCN(C(=O)c2ncnc(N3CCc4ccc(Cl)cc4C3)c2C)CC1 [Example 66] |
| 101 nM | Cc1c(C(=O)N2CCC(N3CCCCC3)CC2)ncnc1N1CCc2ccc(C(F)(F)F)cc2C1 [Example 80] |
| 5 nM | COC1COCCC1NC1CCN(C(=O)c2ncnc(N3CCc4ccc(C(F)(F)F)cc4C3)c2C)CC1 (stereo not drawn) [Example 60] |
| 11 nM | COC1COCCC1NC1CCN(C(=O)c2ncnc(N3CCc4ccc(OC(F)(F)F)cc4C3)c2C)CC1 (stereo not drawn) [Example 8] |
| 21 nM | COc1c(C(=O)N2CCC(N[C@@H]3CCOC[C@@H]3OC)CC2)ncnc1N1CCc2ccc(C(F)(F)F)cc2C1 [Example 67] |
| 62 nM | COc1c(C(=O)N2CCC(N3CCC(N(C)S(C)(=O)=O)CC3)CC2)ncnc1N1CCc2ccc(OC(F)(F)F)cc2C1 [Example 69] |
